Experimental data reported in patent US20240122930A1, “INTEGRIN INHIBITORS AND USES THEREOF IN COMBINATION WITH OTHER AGENTS” (Pliant Therapeutics, Inc., priority 2022, published 2024).
Entries after “also recorded” stand apart in the source; their conditions may differ.

Columns and labels:
[1] = test system: participants with idiopathic pulmonary fibrosis (IPF); assay: Phase 2a clinical trial ([…]-IPF): Forced Vital Capacity (FVC) spirometry; assay type: in vivo, human; details: for Proportion of Participants with FVCpp Decline ≥10%, ITT, FIG. 20: placebo (N=23) 17.4%; for LS Mean (SE) change from Baseline in FVC at Week 12, ITT, Not on SoC subgroup, FIG. 30: placebo (n=7) −28.2; for Proportion of participants with Absolute FVCpp decline ≥10%, ITT, FIG. 31 / Proportion of participants with Relative FVCpp decline ≥10%, ITT, FIG. 29: placebo (n=31) 12.9%; for LS Mean (SE) change from Baseline in FVC at Week 12, mITT, FIG. 27: placebo (n=31) −64.2
[2] = test system: participants with idiopathic pulmonary fibrosis (IPF); assay: as above; assay type: in vivo, human
Procedure: Study Design and Objectives. […] At Day 1, baseline values were collected.
Data shown from left to right is participants treatment with 40 mg Compound 5, 80 mg Compound 5, 160 mg Compound 5, all participants treated with Compound 5, and participants treated with Placebo. Change from baseline was analyzed using a mixed model for repeated measures with terms for treatment group, SOC (Y/N), visit, baseline value, and treatment-by-visit interaction. An unstructured covariance (UN) structure was used.
[…]-IPF study design and objectives.
The histograms from left to right are 40 mg (n=22) with a LS Mean (SE) change from Baseline in FVC (mL) at Week 12 of −48.6, 80 mg (n=23) with a LS Mean (SE) change from Baseline in FVC (mL) at Week 12 of 22.8, 160 mg (n=22) with a LS Mean (SE) change from Baseline in FVC (mL) at Week 12 of −28.7, 320 mg (n=21) with a LS Mean (SE) change from Baseline in FVC (mL) at Week 12 of 26.8, and placebo (n=31) with a LS Mean (SE) change from Baseline in FVC (mL) at Week 12 of −64.2. Change from baseline in FVC analyzed using a mixed model for repeated measures (MMRM) with terms for treatment group, use of SOC, week and baseline value. FVC=Forced Vital Capacity. mITT=Modified Intent to Treat. * p<0.05. **p<0.01.
At Day 1, baseline values were collected.

Structure (SMILES): COCCN(CCCCc1ccc2c(n1)NCCC2)CC[C@H](Nc1ncnc2ccccc12)C(=O)O [Compound 5, (S)-4-((2-methoxyethyl) (4-(5,6,7,8-tetrahydro-1,8-naphthyridin-2-yl)butyl)amino)-2-(quinazolin-4-ylamino) butanoic acid]
- LS Mean Change From Baseline in FVC at week 12, On SoC Subgroup (MMRM, ITT) ([1]; 40 mg (N=17), placebo −95.2 mL): -58.3 mL
- Proportion of Participants with FVCpp Decline ≥10%, ITT, FIG. 20 ([1]; 40 mg (N=22), 12 weeks): 18.2%
- LS Mean (SE) change from Baseline in FVC at Week 12, ITT, Not on SoC subgroup, FIG. 30 ([1]; 40 mg (n=5)): -43.5 mL
- Proportion of participants with Absolute FVCpp decline ≥10%, ITT, FIG. 31 ([1]; 40 mg (n=22)): 9.1%
- Proportion of participants with Relative FVCpp decline ≥10%, ITT, FIG. 29 ([1]; 40 mg (n=22)): 18.2%
- Proportion of Participants with FVCpp Decline ≥10%, ITT, FIG. 20 ([1]; 80 mg (N=23), 12 weeks): 8.7%
- LS Mean (SE) change from Baseline in FVC at Week 12, ITT, Not on SoC subgroup, FIG. 30 ([1]; 80 mg (n=4)): 138.5 mL
- Proportion of participants with Absolute FVCpp decline ≥10%, ITT, FIG. 31 ([1]; 80 mg (n=23)): 8.7%
- Proportion of participants with Relative FVCpp decline ≥10%, ITT, FIG. 29 ([1]; 80 mg (n=23)): 8.7%
- LS Mean (SE) change from Baseline in FVC at Week 12, mITT, FIG. 27 ([1]; 80 mg (n=23)): 22.8 mL
- Proportion of Participants with FVCpp Decline ≥10%, ITT, FIG. 20 ([1]; 160 mg (N=22), 12 weeks): 4.5%
- LS Mean (SE) change from Baseline in FVC at Week 12, ITT, Not on SoC subgroup, FIG. 30 ([1]; 160 mg (n=3)): 26.4 mL
- Proportion of participants with Absolute FVCpp decline ≥10%, ITT, FIG. 31 ([1]; 160 mg (n=22)): 4.5%
- Proportion of participants with Relative FVCpp decline ≥10%, ITT, FIG. 29 ([1]; 160 mg (n=22)): 4.5%
- LS Mean (SE) change from Baseline in FVC at Week 12, mITT, FIG. 27 ([1]; 160 mg (n=22)): -28.7 mL
- Participants with a ≥10% absolute decline in FVC over 24 weeks ([1]; 320 mg): no Compound 5-treated participants
- LS Mean (SE) change from Baseline in FVC at Week 12, ITT, Not on SoC subgroup, FIG. 30 ([1]; 320 mg (n=4)): 19.8 mL
- Proportion of participants with Absolute FVCpp decline ≥10%, ITT, FIG. 31 ([1]; 320 mg (n=21)): 0%
- Proportion of participants with Relative FVCpp decline ≥10%, ITT, FIG. 29 ([1]; 320 mg (n=21)): 0%
- LS Mean (SE) change from Baseline in FVC at Week 12, mITT, FIG. 27 ([1]; 320 mg (n=21)): 26.8 mL
- Participants with a decline of ≥10% in percent predicted FVC (FVCpp) ([1]; 320 mg, 12 weeks): No participants
- Reduction of the decline from baseline in FVCpp compared to placebo ([1]; 320 mg, Week 24): 68%
- Average decrease in FVC at 24 weeks, ITT, SoC subgroup, FIG. 35 ([1]; 320 mg, patients on standard of care (pirfenidone or nintedanib), placebo 172.8 mL): 35.0 mL
- Patients showing an improvement in FVC at 24 weeks, ITT, FIG. 36 ([1]; 320 mg, placebo 0%): 50%
- Average decrease in FVC at 24 weeks, ITT, FIG. 34 ([1]; 320 mg, placebo 109.3 mL): 35.9 mL
- Change in FVC percent predicted from baseline at Week 24, ITT, FIG. 37 ([1]; 320 mg, placebo −[…]): −0.8%
- Proportion of participants with FVCpp decline of ≥10% ([1]; 40, 80, 160 mg, 12 weeks): dose-dependent reduction
- Change in FVC from Baseline to Week 12 (MMRM, ITT) ([1]; pooled Compound 5 groups 40-160 mg (n = 67), placebo −74.1 mL): -15.1 mL
- Reduction in FVC decline over 12 weeks compared to placebo ([1]; pooled active groups 40-160 mg): 80%
- LS Mean (SE) change from Baseline in FVC at Week 12, mITT, FIG. 27 ([2]; 40 mg (n=22), placebo (n=31) −64.2): -48.6 mL
- Treatment effect on FVC with and without use of standard-of-care agents ([2]; 12 weeks): evident; also recorded: observed
